The source of these data is ChEMBL document CHEMBL1129760, “A topliss tree analysis of the HIV-protease inhibitory activity of 6-phenyl-4-hydroxy-pyran-2-ones” (Bioorg Med Chem Lett, 1996).

The target of this assay is Human immunodeficiency virus type 1 protease (Human immunodeficiency virus 1, UniProt Q72874). The experiment in a line: Inhibitory activity against purified HIV-1 protease (BH10) at a pH of 4.7 and a final enzyme concentration of 0.45-1.1 nM.

With `CC(C)c1ccccc1Sc1c(O)cc(-c2cc(Cl)cc(Cl)c2)oc1=O`, it took 26 nM to reach half-maximal inhibition (IC50). As for `CCc1cccc(-c2cc(O)c(Sc3ccccc3C(C)C)c(=O)o2)c1`, the figure is 262 nM; as for `Cc1ccc(-c2cc(O)c(Sc3ccccc3C(C)C)c(=O)o2)cc1`, 59 nM. The value for `CC(C)c1ccccc1Sc1c(O)cc(-c2cccc(O)c2)oc1=O` was 89 nM. In turn, `CC(C)c1ccccc1Sc1c(O)cc(-c2cccc(-c3ccccc3)c2)oc1=O` returned a half-inhibitory concentration (IC50) of 38 nM. As for `Cc1ccccc1-c1cc(O)c(Sc2ccccc2C(C)C)c(=O)o1`, the figure is 1340 nM.

In turn, `CC(C)c1ccccc1Sc1c(O)cc(-c2ccc(C#N)cc2)oc1=O` had a 50% inhibitory concentration (IC50) of 205 nM. As for `CC(C)c1ccccc1Sc1c(O)cc(-c2ccc(O)c(C(=O)O)c2)oc1=O`, the figure is 292 nM. The value for `CC(C)c1ccccc1Sc1c(O)cc(-c2cccc(C(F)(F)F)c2)oc1=O` was 76 nM; that for `CCOC(=O)c1cccc(-c2cc(O)c(Sc3ccccc3C(C)C)c(=O)o2)c1` was 1930 nM. As for `CC(C)c1ccccc1Sc1c(O)cc(-c2ccc([N+](=O)[O-])cc2)oc1=O`, the figure is 191 nM. `CC(C)c1ccccc1Sc1c(O)cc(-c2ccccc2Cl)oc1=O` showed an IC50 of 225 nM. This IC50 and that of the compound before are within 1.5-fold of each other.

Turning to `CC(C)c1ccccc1Sc1c(O)cc(-c2cccc(Cl)c2)oc1=O`, half-maximal inhibition (IC50) required 23 nM.

Compound `CCOC(=O)c1ccc(-c2cc(O)c(Sc3ccccc3C(C)C)c(=O)o2)cc1` registered an IC50 of 35 nM. Against the preceding compound, the IC50 is about 1.5-fold higher. The value for `CC(C)(C)NC(=O)[C@@H]1CCCCN1C[C@@H](O)[C@H](Cc1ccccc1)NC(=O)[C@H](CC(N)=O)NC(=O)c1ccc2ccccc2n1` was 10 nM; that for `COc1ccccc1-c1cc(O)c(Sc2ccccc2C(C)C)c(=O)o1` was 1420 nM; that for `CC(C)c1ccccc1Sc1c(O)cc(-c2cccc(N(C)C)c2)oc1=O` was 114 nM.

For `CC(C)c1ccccc1Sc1c(O)cc(-c2ccc(O)cc2)oc1=O`, the IC50 turned out to be 54 nM. In turn, `CCOC(=O)c1cc(-c2cc(O)c(Sc3ccccc3C(C)C)c(=O)o2)ccc1O` gave a half-inhibitory concentration (IC50) of 148 nM. With `CC(C)c1ccccc1Sc1c(O)cc(-c2cccc(C(=O)O)c2)oc1=O`, half-maximal inhibition (IC50) required 151 nM. This IC50 and that of the compound before are within 1.5-fold of each other.

In turn, `COC(=O)c1cccc(-c2cc(O)c(Sc3ccccc3C(C)C)c(=O)o2)c1` came in with an IC50 of 80 nM.

`CC(C)c1ccccc1Sc1c(O)cc(-c2ccc(Cl)c(Cl)c2)oc1=O` showed a 50% inhibitory concentration (IC50) of 22 nM. Compound `COC(=O)c1cc(-c2cc(O)c(Sc3ccccc3C(C)C)c(=O)o2)ccc1O` displayed an IC50 of 62 nM.

Consider `CC(C)c1ccccc1Sc1c(O)cc(-c2ccc(C(N)=O)cc2)oc1=O`, for which half-maximal inhibition (IC50) required 135 nM. In turn, `CC(C)c1ccccc1Sc1c(O)cc(-c2ccc(F)cc2)oc1=O` came in with an IC50 of 124 nM. This IC50 and that of the compound before are within 1.5-fold of each other. The value for `Cc1cccc(-c2cc(O)c(Sc3ccccc3C(C)C)c(=O)o2)c1` was 14 nM; that for `CC(C)c1ccccc1Sc1c(O)cc(-c2ccc(C(=O)O)cc2)oc1=O` was 68 nM; that for `CC(C)c1ccccc1Sc1c(O)cc(-c2ccc(Cl)cc2)oc1=O` was 76 nM. `CC(C)c1ccccc1Sc1c(O)cc(-c2cccc([N+](=O)[O-])c2)oc1=O` had a half-inhibitory concentration (IC50) of 67 nM.

Regarding `Cc1cc(C)cc(-c2cc(O)c(Sc3ccccc3C(C)C)c(=O)o2)c1`, the concentration for half-maximal inhibition (IC50) came to 15 nM. For the compound `COc1ccc(-c2cc(O)c(Sc3ccccc3C(C)C)c(=O)o2)cc1`, inhibition was half-maximal at 83 nM (IC50).

One may read the IC50 as the midpoint of a concentration-inhibition curve.
